Reference: patent US9029337B2, “Modulation of factor 7 expression” (Isis Pharmaceuticals, Inc., priority 2007, dated 2015)
Strand notation (5' to 3'): a small letter for the sugar, then the base; units joined by * are phosphorothioate-linked, units joined directly phosphodiester-linked; [ ] holds rarer units or linkages, { } end groups; capitals alone tell only the bases. e = 2'-O-(2-methoxyethyl) (MOE); [5mC] = 5-methylcytosine; d = 2'-deoxy (DNA)

System: human Factor 7 mRNA
Experiment: Antisense inhibition of human Factor 7 mRNA in HepB3 cells, 50 nM antisense oligonucleotide, lipofectin
Assay type: cell-based
Details: Table 1, 50 nM, lipofectin, approximately 24 hours, relative to untreated control cells
Description: Antisense oligonucleotides targeted to a Factor 7 nucleic acid were tested for their effects on Factor 7 mRNA in vitro. Cultured HepB3 cells at a density of 4,000 cells per well were transfected using lipofectin reagent with 50 nM antisense oligonucleotide. After a treatment period of approximately 24 hours, RNA was isolated from the cells and Factor 7 mRNA levels were measured by real-time RT-PCR, as described herein. Factor 7 mRNA levels were adjusted according to total RNA content as measured by RIBOGREEN®. Results are presented as percent inhibition of Factor 7, relative to untreated control cells.
(§1) Antisense oligonucleotides targeted to a Factor 7 nucleic acid were designed and tested for their effects on Factor 7 mRNA in vitro. Certain antisense oligonucleotides from Table 3 were also retested for their effects on Factor 7 mRNA in vitro. Cultured HepB3 cells at a density of 4,000 cells per well were transfected using lipofectin reagent with 50 nM antisense oligonucleotide. After a treatment period of approximately 24 hours, RNA was isolated from the cells and Factor 7 mRNA levels were measured by real-time RT-PCR, as described herein. Human Factor 7 primer probe set RTS 2927 was used to measure mRNA levels. Factor 7 mRNA levels were adjusted according to total RNA content as measured by RIBOGREEN®. Results are presented as percent inhibition of Factor 7, relative to untreated control.
as §1, with “tested” for “tested for their effects on Factor 7 mRNA in vitro. Certain antisense oligonucleotides from Table 3 were also retested”
These gapmers were designed by creating gapmers shifted slightly upstream and downstream (i.e. “microwalk”) of the original gapmers from Table 7. Gapmers were also created with various motifs, e.g. 5-10-5 MOE, 3-14-3 MOE, and 2-13-5 MOE. These gapmers were tested in vitro. Cultured HepB3 cells at a density of 4,000 cells per well were transfected using lipofectin reagent with 50 nM antisense oligonucleotide. After a treatment period of approximately 24 hours, RNA was isolated from the cells and Factor 7 mRNA levels were measured by real-time RT-PCR. Factor 7 mRNA levels were adjusted according to total RNA content, as measured by RIBOGREEN®. Results are presented as percent inhibition of Factor 7, relative to untreated control cells.

Row | Substance | % Inhibition [%]
1 | 407962 (antisense eT*eT*eG*eG*eA*dA*dG*d[5mC]*dA*dG*d[5mC]*d[5mC]*d[5mC]*dA*d[5mC]*eG*eG*e[5mC]*eT*eG) [compound 407962] | 41
2 | 407602 (antisense e[5mC]*eT*eG*e[5mC]*eA*dG*d[5mC]*d[5mC]*dA*dG*dG*d[5mC]*dA*dG*d[5mC]*e[5mC]*e[5mC]*eT*eG*eA) [compound 407602] | 81
3 | 407624 (antisense eG*eA*eG*eA*e[5mC]*d[5mC]*dA*d[5mC]*d[5mC]*d[5mC]*dA*dG*dA*dT*dG*eG*eT*eG*eT*eT) [compound 407624] | 73
4 | 407665 (antisense eG*eT*eT*eA*e[5mC]*dG*dA*dA*dG*dA*d[5mC]*dT*dG*dG*dG*eA*eA*eA*eT*eG) [compound 407665] | 29
5 | 407599 (antisense e[5mC]*e[5mC]*eT*eG*eG*dG*dA*dG*dA*d[5mC]*d[5mC]*dA*dT*dG*dA*eT*eG*eA*eA*eA) [compound 407599] | 73
6 | 407668 (antisense eG*eA*eA*eG*e[5mC]*d[5mC]*dT*dT*dA*d[5mC]*d[5mC]*dT*dG*d[5mC]*d[5mC]*eA*eT*eG*eG*eA) [compound 407668] | 54
7 | 407930 (antisense e[5mC]*eA*eA*eT*eG*dA*dA*dG*dG*d[5mC]*dA*dG*dA*dG*d[5mC]*eA*eG*e[5mC]*eA*eG) [compound 407930] | 70

Same assay, conditions: Table 6, 50 nM, lipofectin, approximately 24 hours

Row | Substance | % Inhibition [%]
8 | 422268 (antisense eA*eG*d[5mC]*dG*d[5mC]*dG*dG*dA*dA*dG*dA*dA*dG*dG*dG*eA*e[5mC]*eG*eG*eA) [compound 422268] | 63
9 | 422193 (antisense eT*eG*eA*dG*d[5mC]*dG*d[5mC]*dG*dG*dA*dA*dG*dA*dA*dG*dG*dG*eA*e[5mC]*eG) [compound 422193] | 6

Same assay, conditions: lipofectin, 50 nM antisense oligonucleotide, approximately 24 hours, Factor 7 mRNA by real-time RT-PCR (RTS 2927), relative to untreated control

Row | Substance | % Inhibition [%]
10 | 416524 (antisense eT*eA*eA*eT*eT*dT*dA*dA*dT*dA*dT*dT*d[5mC]*dA*dG*eA*eT*eG*eG*eT) [compound 416524] | 0
11 | 416428 (antisense e[5mC]*eT*eG*eG*eG*dT*dT*dA*d[5mC]*dG*dA*dA*dG*dA*d[5mC]*eT*eG*e[5mC]*eA*eG) [compound 416428] | 11
12 | 416552 (antisense eT*e[5mC]*eT*eG*e[5mC]*dA*d[5mC]*dA*dG*dG*dG*dT*dA*dG*dA*e[5mC]*e[5mC]*e[5mC]*eT*e[5mC]) [compound 416552] | 46
13 | 416447 (antisense e[5mC]*eA*eT*eG*eG*dA*dT*dA*dT*dT*d[5mC]*dA*dA*d[5mC]*dT*eG*eT*eG*eG*eG) [compound 416447] | 17
14 | 416490 (antisense eA*e[5mC]*eT*e[5mC]*eA*dG*d[5mC]*dA*dA*dG*dA*dG*dT*dG*d[5mC]*eA*eG*e[5mC]*eT*eT) [compound 416490] | 33
15 | 416431 (antisense eA*eG*eG*eG*eA*dG*d[5mC]*d[5mC]*d[5mC]*dG*dG*d[5mC]*d[5mC]*dG*d[5mC]*eA*eG*e[5mC]*eT*e[5mC]) [compound 416431] | 25
16 | 416448 (antisense eT*eT*eT*eT*eT*d[5mC]*d[5mC]*dA*d[5mC]*dA*dT*dG*dG*dA*dT*eA*eT*eT*e[5mC]*eA) [compound 416448] | 34

Same assay, conditions: oligonucleotides targeted to nucleobases 11830 to 11869 of SEQ ID NO: 1 (Table 9)

Row | Substance | % Inhibition (human Factor 7 mRNA levels) [%]
17 | 422170 (antisense eG*e[5mC]*eT*dG*dA*dG*dG*dA*dG*dA*d[5mC]*dA*dA*dT*dG*dG*dT*e[5mC]*eA*eG) [compound 422170] | 28
18 | 422090 (antisense eG*eG*eT*e[5mC]*eA*dG*dG*dG*d[5mC]*dT*dG*dG*dT*dT*dT*eT*eG*eG*eA*eG) [compound 422090] | 42

Same assay, conditions: oligonucleotides targeted to nucleobases 13760 to 13789 of SEQ ID NO: 1 (Table 10)

Row | Substance | % Inhibition (human Factor 7 mRNA levels) [%]
19 | 422255 (antisense eA*e[5mC]*d[5mC]*d[5mC]*dG*d[5mC]*d[5mC]*dG*dG*d[5mC]*dT*d[5mC]*dT*dG*d[5mC]*eT*e[5mC]*eA*eT*e[5mC]) [compound 422255] | 30
